Data published in ChEMBL document CHEMBL1201862, “PubChem BioAssay data set” (2004).
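Method: 48-hour compound exposure of cells in 96-well plates, five concentrations, linear interpolation of endpoints. Abbreviation: GI50, concentration required for 50% inhibition of growth.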 Activity calls are given as the source filed them. Rule as the data show it: active = GI50 up to about 1.1 µM and inactive = higher.

Assays:
Experiment in all cases: NCI tumour cell line growth inhibition, 48 h
A549 = tested on: A549
HCT-15 = tested on: HCT-15
HOP-62 = tested on: HOP-62
HT-29 = tested on: HT-29
IGROV-1 = tested on: IGROV-1
K562 = tested on: K562
NCI-H460 = tested on: NCI-H460
NCI/ADR-RES = tested on: NCI/ADR-RES
OVCAR-5 = tested on: OVCAR-5
SF-295 = tested on: SF-295
SF-539 = tested on: SF-539
SK-MEL-28 = tested on: SK-MEL-28
SN12C = tested on: SN12C
SNB-19 = tested on: SNB-19
SNB-75 = tested on: SNB-75
SNB-78 = tested on: SNB-78
COLO 205 = tested on: COLO 205
MDA-MB-435 = tested on: MDA-MB-435
SF-268 = tested on: SF-268
T47D = tested on: T47D

Row | Structure (SMILES) | GI50 (A549) | GI50 (HCT-15) [µM] | GI50 (HOP-62) | GI50 (HT-29) | GI50 (IGROV-1) | GI50 (K562) | GI50 (NCI-H460) | GI50 (NCI/ADR-RES) | GI50 (OVCAR-5) | GI50 (SF-295) | GI50 (SF-539) | GI50 (SK-MEL-28) | GI50 (SN12C) | GI50 (SNB-19) | GI50 (SNB-75) | GI50 (SNB-78) | GI50 (COLO 205) | GI50 (MDA-MB-435) | GI50 (SF-268) | GI50 (T47D)
1 | C=C(NC(=O)C(=C)NC(=O)c1csc(C2=NC3c4csc(n4)C4NC(=O)c5csc(n5)C(C(C)(O)C(C)O)NC(=O)C5CSC(=N5)/C(=C/C)NC(=O)C(C(C)O)NC(=O)c5csc(n5)C3(CC2)NC(=O)C(C)NC(=O)C(=C)NC(=O)C(C)NC(=O)C(C(C)CC)NC2C=Cc3c(C(C)O)cc(nc3C2O)C(=O)OC4C)n1)C(N)=O (stereo not drawn) | 4.57 µM (inactive) | 4.12 | 9.35 µM (inactive) | 1.43 µM (inactive) | 9.06 µM (inactive) | 0.726 µM (active) | 1.72 µM (inactive) | > 58.3 µM (inactive) | 11.8 µM (inactive) | 4 µM (inactive) | 1.73 µM (inactive) | 1.27 µM (inactive) | 1.94 µM (inactive) | 2.69 µM (inactive) | 1.82 µM (inactive) | 2.54 µM (inactive) |  |  |  | 
2 | N#C/C(=C\c1ccc2ccccc2c1)C(=O)c1ccccc1 | > 100 µM (inactive) | 65 | 20.8 µM (inactive) | > 67.3 µM (inactive) | > 100 µM (inactive) | > 65.8 µM (inactive) | > 94.6 µM (inactive) |  | > 100 µM (inactive) | > 54.6 µM (inactive) | > 100 µM (inactive) | > 47 µM (inactive) | > 66.5 µM (inactive) | > 82.4 µM (inactive) | 93.1 µM (inactive) | > 100 µM (inactive) | > 100 µM (inactive) | 19.4 µM (inactive) | 63.5 µM (inactive) | 36 µM (inactive)
3 | COc1ccc([C@@H]2CC(=O)NCCCNCCCCNCCCN2)cc1 | > 100 µM (inactive) | > 100 | > 100 µM (inactive) | > 100 µM (inactive) | > 100 µM (inactive) | > 100 µM (inactive) | > 100 µM (inactive) |  | > 100 µM (inactive) | > 100 µM (inactive) | > 100 µM (inactive) | > 100 µM (inactive) | > 100 µM (inactive) | > 100 µM (inactive) | > 100 µM (inactive) | > 100 µM (inactive) | > 100 µM (inactive) |  | > 100 µM (inactive) | 
4 | O=P1(Oc2ccccc2)C(c2ccccc2)C(c2ccccc2)=NN1c1ccccc1 (stereo not drawn) | 29.2 µM (inactive) | 19.6 | 24.6 µM (inactive) | 18.3 µM (inactive) | 26.2 µM (inactive) | 24.8 µM (inactive) | 24.2 µM (inactive) |  | 25.4 µM (inactive) | 28.2 µM (inactive) | 18.4 µM (inactive) | 25.6 µM (inactive) | 25.9 µM (inactive) | 34.9 µM (inactive) | 30 µM (inactive) | 46.5 µM (inactive) | 18.9 µM (inactive) |  | 29.4 µM (inactive) | 
5 | C[C@@](O)(/C=C/[C@H]1CC=CC(=O)O1)[C@@H](C[C@@H](O)\C=C/C=C\C=C\CO)OP(=O)(O)O [FOSTRIECIN SODIUM] | 9.66 µM (inactive) | 5.74 | 4.9 µM (inactive) | 1.75 µM (inactive) | 5.14 µM (inactive) | 1.6 µM (inactive) | 10.4 µM (inactive) | 12.8 µM (inactive) | 6.31 µM (inactive) | 3.94 µM (inactive) | 7.23 µM (inactive) | 7.28 µM (inactive) | 9.33 µM (inactive) | 32.3 µM (inactive) |  | 15 µM (inactive) | 3.08 µM (inactive) | 1.28 µM (inactive) | 16.4 µM (inactive) | 48.1 µM (inactive)
